Assay results: the NIST ThermoML archive (doi:10.1016/j.tca.2011.08.021)
“And” between values parts separate entries of the source, which are not always exact repeats. Equal entries are not always repeated.

Experiments:
[1] = molar heat capacity at constant pressure; conditions: 101.33 kPa, Crystal, Small sample (50 mg) DSC
[2] = 393 K; 101.33 kPa; Crystal; X-ray diffraction

[Nd+3].[Nd+3].[O-2].[O-2].[O-2].[O-2].[O-2].[O-2].[O-2].[Zr+4].[Zr+4] [dineodymium(III) dizirconium(IV) oxide]
[1]
Conditions | molar heat capacity at constant pressure
293 K | 236.67 J/K/mol
303 K | 238.41 J/K/mol
313 K | 240.75 J/K/mol
573 K | 275.35 J/K/mol
623 K | 280.65 J/K/mol
673 K | 284.79 J/K/mol
723 K | 288.11 J/K/mol
773 K | 290.8 J/K/mol
823 K | 293.01 J/K/mol
873 K | 294.85 J/K/mol
923 K | 296.39 J/K/mol
973 K | 297.7 J/K/mol
1023 K | 298.83 J/K/mol
1073 K | 299.79 J/K/mol
1123 K | 300.63 J/K/mol and 302 J/K/mol
1173 K | 301.36 J/K/mol
1273 K | 302.57 J/K/mol
1323 K | 303.07 J/K/mol
1373 K | 303.52 J/K/mol

Conditions | mass density [kg/m3]
[2] | 6411
